Measurements: article PMC3597608, “Yellow Fluorescent Protein-Based Assay to Measure GABAA Channel Activation and Allosteric Modulation in CHO-K1 Cells” (PLoS ONE, 2013)
Read-outs that look alike come from different tables or passages of the source.

Experiments:
human GABAA α2β3γ2 = target: T1, human GABAA α2β3γ2 (Homo sapiens, UniProt P18507+P28472+P47869); test: cell-based; type: cell-based
T1 construct: expressed in transfected cells; host or cells: CHO-K1 (ATCC, CCL-61), transient electroporation with MaxCyte STX, cryopreserved assay-ready cells
T1 sequence (P47869 29-451): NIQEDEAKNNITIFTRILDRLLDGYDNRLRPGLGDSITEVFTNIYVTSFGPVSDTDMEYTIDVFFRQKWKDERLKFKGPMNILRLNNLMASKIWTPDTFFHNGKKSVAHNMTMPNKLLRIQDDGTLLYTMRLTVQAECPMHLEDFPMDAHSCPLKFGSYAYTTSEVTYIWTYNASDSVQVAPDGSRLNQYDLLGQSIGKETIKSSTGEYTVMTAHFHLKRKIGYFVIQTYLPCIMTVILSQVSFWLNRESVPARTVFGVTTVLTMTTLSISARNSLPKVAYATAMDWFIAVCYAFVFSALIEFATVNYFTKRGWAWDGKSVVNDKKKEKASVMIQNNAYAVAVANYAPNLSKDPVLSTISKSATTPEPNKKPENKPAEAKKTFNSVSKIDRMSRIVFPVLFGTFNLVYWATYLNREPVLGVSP
T1 sequence (P28472 26-473): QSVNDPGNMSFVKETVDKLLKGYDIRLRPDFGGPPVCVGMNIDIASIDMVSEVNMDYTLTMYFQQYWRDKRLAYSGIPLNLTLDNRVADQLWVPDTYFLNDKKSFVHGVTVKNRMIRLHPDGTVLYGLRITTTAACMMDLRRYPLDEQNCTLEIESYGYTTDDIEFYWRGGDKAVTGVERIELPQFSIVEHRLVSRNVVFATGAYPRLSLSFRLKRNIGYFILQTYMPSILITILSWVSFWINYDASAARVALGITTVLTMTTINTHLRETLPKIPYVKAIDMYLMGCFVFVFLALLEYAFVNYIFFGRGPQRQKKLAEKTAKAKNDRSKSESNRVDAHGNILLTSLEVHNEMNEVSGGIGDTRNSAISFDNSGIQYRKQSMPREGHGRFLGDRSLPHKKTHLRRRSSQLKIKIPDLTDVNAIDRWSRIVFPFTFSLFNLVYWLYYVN
T1 sequence (P18507 40-467 isoform P18507-1 limits assumed): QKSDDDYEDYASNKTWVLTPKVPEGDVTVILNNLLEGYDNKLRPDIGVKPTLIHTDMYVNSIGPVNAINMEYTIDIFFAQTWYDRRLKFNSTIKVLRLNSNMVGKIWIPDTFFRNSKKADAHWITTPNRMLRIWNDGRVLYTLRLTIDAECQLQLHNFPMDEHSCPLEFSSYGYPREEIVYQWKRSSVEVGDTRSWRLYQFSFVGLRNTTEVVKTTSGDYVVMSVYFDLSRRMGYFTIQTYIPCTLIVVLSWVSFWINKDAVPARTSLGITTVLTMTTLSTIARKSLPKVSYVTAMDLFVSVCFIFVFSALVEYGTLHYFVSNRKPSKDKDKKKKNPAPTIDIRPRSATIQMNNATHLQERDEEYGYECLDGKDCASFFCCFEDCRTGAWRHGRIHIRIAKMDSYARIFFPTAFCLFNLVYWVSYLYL
Protocol: The cDNA of YFP (Genbank accession number AY818378) with H148Q and I152L mutations was inserted into the pcDNA3.1 vector using 5′ BamHI and 3′ NotI sites. Human GABAA subunits α2, β3 and γ2 (Genbank accession numbers; α2 NM_000807, β3 NM_000814, γ2 NM_000816) were inserted into pGen-IRES-neo2 vectors using NotI 5′ and 3′ sites.
CHO-K1 cell line (ATCC, CCL-61) was cultured in Ham's F-12 medium supplemented with 10% fetal bovine serum and incubated at 37°C and 5% CO2. Transient transfection was performed using MaxCyte STX electroporation instrument (MaxCyte, Inc.) with CHO cell line specific electroporation protocol. The cells were split one day prior to electroporation to ensure that cells were in the log phase growth at time of transfection. Cells were harvested with Accutase (PAA Laboratories), pelleted at 250 g for 10 minutes, rinsed with MaxCyte Electroporation Buffer (MaxCyte, Inc.), pelleted again and resuspended in MaxCyte Electroporation Buffer at a density of 1×10^8 cells/ml. CHO-K1 cells were electroporated simultaneously with four plasmids using a total amount of 300 µg DNA per 1×10^8 cells; YFP-H148Q/I152L (150 µg) and GABAA (72.5 µg α2, […] and 72.5 µg γ2) plasmids. Following electroporation, cells were incubated at 37°C and 5% CO2 for 20 minutes to recover. Cells were then diluted in culture medium and centrifuged 250 g for 10 minutes. Pelleted cells were resuspended to 5–10×10^6 cells/ml in Ham's F12 with 20% fetal bovine serum and 10% DMSO, and cryopreserved using controlled-rate cryo containers (Nalgene, Thermo Scientific). Cryopreserved assay-ready cells were used for all experiments.
Cryopreserved transiently transfected cells were thawed and plated in 384-well poly-D-lysine-coated plates at a density of 15000 cells/well using a Multidrop Combi Reagent Dispenser (Thermo Scientific). After 24 h incubation at 37°C and 5% CO2, cells were washed three times on an ELx405 Select Deep Well Microplate Washer (BioTEK), exchanging 50 µl culture medium with 30 µl HBSS buffer supplemented with 20 mM Hepes. Plates were incubated with buffer for 1 h at 37°C and 5% CO2. Cell plates were assayed on a FLIPR Tetra (Molecular Devices) using excitation filter of 470–495 nm and emission filter of 515–575 nm. Starting with 30 µl buffer in each well, cells were pre-incubated with 10 µl compound for 15 minutes. […] Compounds were initially solubilized to a concentration of 10 mM in DMSO and then diluted in HBSS buffer with 20 mM Hepes. Final DMSO concentration in the assay was 0.02% for modulators and at 1% for Picrotoxin and Bicuculline.
Data at 1–10 s was adjusted to a baseline of 100% and results were then extracted as % quench at 120 s. % quench is defined as (Finit – Ffinal)/Finit*100 where Finit and Ffinal are the initial and final values of fluorescence respectively. […] Curve fits were performed using least-squares fitting routine (GraphPad Prism 5, GraphPad Software Inc.).
The 95% confidence interval was calculated as 2× this standard error. Taking the anti-log converts this to a fold change (ratio) between two EC50 values.

[1] = system: α2β3γ2 ion channel subtype; design: method as in PMID 19090692; conditions: VSD assay; cited from earlier work
GABA α2β3γ2 = system: GABA α2β3γ2; design: method as in PMID 14680756, PMID 16183706; conditions: mouse fibroblast L(tk−) cells; cited from earlier work
[2] = 1 µM modulator, p<0.05, difference in pEC50 ≥0.15 significant

O=C1CC(=O)N(c2ccccc2)c2cc(Cl)ccc2N1 [Desmethyl-clobazam]
Significance 95% confidence of pEC50 difference vs GABA alone (human GABAA α2β3γ2; [2]): non-significant

CN1C(=O)CN=C(c2ccccc2)c2cc(Cl)ccc21 [Diazepam]
GABA EC50 shift (human GABAA α2β3γ2): 1.7 fold
Significance 95% confidence of pEC50 difference vs GABA alone (human GABAA α2β3γ2): Significant difference
allosteric effect on GABA (human GABAA α2β3γ2): significant positive allosteric effect
modulation of GABA EC20 quench (human GABAA α2β3γ2): significant increase
pEC50 difference (GABA with modulator vs GABA alone) [1]: 0.41

Picrotoxin
effect on basal (agonist-independent) YFP quench (human GABAA α2β3γ2; 100 µM, 15 min prior to buffer with different I− concentrations): reduced basal quench to background levels
effect on YFP quench in cells activated with EC80 of GABA (human GABAA α2β3γ2; 1 mM, EC80 of GABA in 10 mM NaI buffer): blocked YFP quench

Cn1ncnc1COc1nn2c(-c3cc(F)ccc3F)nnc2cc1C(C)(C)C [L-838417]
allosteric effect on GABA (human GABAA α2β3γ2; 1 µM modulator, 95% confidence): not able to detect any significant allosteric modulation
Significance 95% confidence of pEC50 difference vs GABA alone (human GABAA α2β3γ2; [2]): non-significant
modulation of GABA signal [1]: detected modulation of GABA signal
relative in vitro efficacy, potentiation of GABA EC20 compared to 100% response from chlordiazepoxide (GABA α2β3γ2): 34%

CN1C(=O)CC(=O)N(c2ccccc2)c2cc(Cl)ccc21 [Clobazam]
allosteric effect on GABA (human GABAA α2β3γ2; 1 µM modulator, 95% confidence): significant positive allosteric effect
Significance 95% confidence of pEC50 difference vs GABA alone (human GABAA α2β3γ2; [2]): Significant difference

CCn1ncnc1COc1nn2c(-c3ccccc3F)nnc2cc1C(C)(C)C [TPA-023, 7-(1,1-dimethylethyl)-6-(2-ethyl-2H-1,2,4-triazol-3-ylmethoxy)-3-(2-fluorophenyl)-1,2,4-triazolo z[4,3-b]pyridazine]
allosteric effect on GABA (human GABAA α2β3γ2; 1 µM modulator, 95% confidence): not able to detect any significant allosteric modulation
Significance 95% confidence of pEC50 difference vs GABA alone (human GABAA α2β3γ2; [2]): non-significant
modulation of GABA EC20 quench (human GABAA α2β3γ2; EC20 of GABA with 1 µM modulator, 10 mM I−): No significant change
relative in vitro efficacy, potentiation of GABA EC20 compared to 100% response from chlordiazepoxide (GABA α2β3γ2): 11%

CCCN(CCC)C(=O)Cc1c(-c2ccc(Cl)cc2)nc2ccc(Cl)cn12 [Alpidem]
allosteric effect on GABA (human GABAA α2β3γ2; 1 µM modulator, 95% confidence): significant positive allosteric effect
Significance 95% confidence of pEC50 difference vs GABA alone (human GABAA α2β3γ2; [2]): Significant difference

O=C1Nc2ccc(Cl)cc2C(c2ccccc2Cl)=NC1O (centres unmarked) [Lorazepam]
allosteric effect on GABA (human GABAA α2β3γ2; 1 µM modulator, 95% confidence): significant positive allosteric effect
Significance 95% confidence of pEC50 difference vs GABA alone (human GABAA α2β3γ2; [2]): Significant difference

CN1CCc2cc3c(cc2[C@H]1[C@@H]1OC(=O)c2c1ccc1c2OCO1)OCO3 [Bicuculline]
IC50 (human GABAA α2β3γ2): 2140 nM
